This is an account of results in ChEMBL document CHEMBL5329216, “Discovery of conformationally constrained c-Abl inhibitors with potential neuroprotective effects against Parkinson's disease” (Bioorg Med Chem, 2023).

Some results are limits rather than exact numbers.

For orientation: IC50 means the concentration needed to halve the response being measured.

Data set [1] in a line: Cytotoxicity against HEK293 cells assessed as reduction in cell viability incubated for 48 hrs by MTT assay. It is filed as toxicity, cell-based. The conditions noted are these: human.
Data set [2] can be described thus: Cytotoxicity against human SH-SY5Y cells assessed as reduction in cell viability incubated for 48 hrs by MTT assay. It is filed as toxicity, cell-based. For orientation: Tetrazolium dyes change colour on reduction, which living cells bring about.
Data set [3] is described as follows: Cytotoxicity against human L02 cells assessed as reduction in cell viability incubated for 48 hrs by MTT assay. It is filed as toxicity, cell-based.
For data set [4], the system named is SH-SY5Y. Nature of the data set: Neuroprotective activity against MPP+-induced human SH-SY5Y cells assessed as reduction in cell death at 5 uM measured after 48 hrs by MTT assay relative to control. It is filed as functional. Further details: scale not given: the % may be the effect or the level left.
Data set [5] concerns SH-SY5Y. Nature of the data set: Neuroprotective activity against MPP+-induced human SH-SY5Y cells assessed as reduction in cell death at 0.08 to 5 uM measured after 48 hrs by MTT assay relative to control. It is filed as functional. More on the design: scale not given: the % may be the effect or the level left. As to conditions: dose 0.08-5 µM.

As for `Cc1ccc(C(=O)Nc2ccc(CN3CCN(C)CC3)c(C(F)(F)F)c2)cc1Nc1cccc2c1C(=O)C(=O)N2C`, the IC50 at 48 h was 16.6 µM in data set [1], 23.6 µM in data set [2] and above 80 µM in data set [3].

Consider `Cc1cn(-c2cc(NC(=O)c3ccc(C)c(Nc4nccc(-c5cccnc5)n4)c3)cc(C(F)(F)F)c2)cn1` [NILOTINIB], for which the IC50 at 48 h was 8.2 µM in data set [1] and 37 µM in data set [3]. The figures for the Activity in the data set with SH-SY5Y [4] and with SH-SY5Y [5] were 20% and 6.9%, respectively.

As for `Cc1ccc(C(=O)Nc2cc(-c3cnn(C)c3)cc(C(F)(F)F)c2)cc1Nc1cccc2c1C(=O)C(=O)N2C`, the half-maximal inhibitory concentration (IC50) at 48 h in data set [1], in data set [2] and in data set [3] was above 80 µM in each case.
